According to patent US20110105515A1, “TARGETING THE ONCOPROTEIN NUCLEOPHOSMIN” (President and Fellows of Harvard College, priority 2007, published 2011):
Like-named read-outs stand apart in the source and are kept apart here.

Legend:
MDA-MB-231/ATCC = MDA-MB-231/ATCC (Breast Cancer), 48 hours, SRB
IGROV1 = IGROV1 (Ovarian Cancer), 48 hours, SRB
SK-OV-3 = SK-OV-3 (Ovarian Cancer), 48 hours, SRB
MDA-MB-468 = MDA-MB-468 (Breast Cancer), 48 hours, SRB
SK-MEL-2 = SK-MEL-2 (Melanoma), 48 hours, SRB
SF-539 = SF-539 (CNS Cancer), 48 hours, SRB
A549/ATCC = A549/ATCC (Non-Small Cell Lung Cancer), 48 hours, SRB
M14 = M14 (Melanoma), 48 hours, SRB
MCF7 = MCF7 (Breast Cancer), 48 hours, SRB
EKVX = EKVX (Non-Small Cell Lung Cancer), 48 hours, SRB
NCI-H522 = NCI-H522 (Non-Small Cell Lung Cancer), 48 hours, SRB
786-0 = 786-0 (Renal Cancer), 48 hours, SRB
HCT-15 = HCT-15 (Colon Cancer), 48 hours, SRB
NCI-H226 = NCI-H226 (Non-Small Cell Lung Cancer), 48 hours, SRB
BT-549 = BT-549 (Breast Cancer), 48 hours, SRB
NCI-H460 = NCI-H460 (Non-Small Cell Lung Cancer), 48 hours, SRB
HCT-116 = HCT-116 (Colon Cancer), 48 hours, SRB
A498 = A498 (Renal Cancer), 48 hours, SRB
RXF 393 = RXF 393 (Renal Cancer), 48 hours, SRB
HT29 = HT29 (Colon Cancer), 48 hours, SRB
COLO 205 = COLO 205 (Colon Cancer), 48 hours, SRB
U251 = U251 (CNS Cancer), 48 hours, SRB
MOLT-4 = MOLT-4 (Leukemia), 48 hours, SRB
UACC62 = UACC62 (Melanoma), 48 hours, SRB
SNB-19 = SNB-19 (CNS Cancer), 48 hours, SRB
OVCAR-8 = OVCAR-8 (Ovarian Cancer), 48 hours, SRB
UACC-257 = UACC-257 (Melanoma), 48 hours, SRB
OVCAR-3 = OVCAR-3 (Ovarian Cancer), 48 hours, SRB
KM12 = KM12 (Colon Cancer), 48 hours, SRB
NCI/ADR-RES = NCI/ADR-RES (Breast Cancer), 48 hours, SRB

SMILES: CC1(C)C=Cc2c(ccc3c4c(n(O)c23)C(C)(C)C2CC35CCCN3C(=O)C2(NC5=O)C4SCC(NC(=O)CCC(N)C(=O)O)C(=O)NCC(=O)O)O1 (stereo not drawn) [Glutathione Adduct]
- GI50 (MDA-MB-231/ATCC): 931 nM
- TGI (MDA-MB-231/ATCC): 3680 nM
- CC50 (MDA-MB-231/ATCC; read-out: LC50): 14700 nM
- GI50 (IGROV1): 1060 nM
- TGI (IGROV1): 2810 nM
- CC50 (IGROV1; read-out: LC50): 11900 nM
- GI50 (SK-OV-3): 1300 nM
- TGI (SK-OV-3): 5060 nM
- CC50 (SK-OV-3; read-out: LC50): 16100 nM
- GI50 (MDA-MB-468): 674 nM
- TGI (MDA-MB-468): 1620 nM
- GI50 (SK-MEL-2): 877 nM
- TGI (SK-MEL-2): 2440 nM
- CC50 (SK-MEL-2; read-out: LC50): 10900 nM
- GI50 (SF-539): 838 nM
- TGI (SF-539): 2030 nM
- CC50 (SF-539; read-out: LC50): 4900 nM
- GI50 (A549/ATCC): 1370 nM
- TGI (A549/ATCC): 3940 nM
- CC50 (A549/ATCC; read-out: LC50): 15800 nM
- GI50 (M14): 996 nM
- TGI (M14): 2630 nM
- CC50 (M14; read-out: LC50): 11200 nM
- GI50 (MCF7): 840 nM
- TGI (MCF7): 3180 nM
- CC50 (MCF7; read-out: LC50): 33600 nM
- GI50 (EKVX): 1110 nM
- TGI (EKVX): 5400 nM
- CC50 (EKVX; read-out: LC50): 18900 nM
- GI50 (NCI-H522): 727 nM
- TGI (NCI-H522): 1950 nM
- CC50 (NCI-H522; read-out: LC50): 6290 nM
- GI50 (786-0): 1120 nM
- TGI (786-0): 2440 nM
- CC50 (786-0; read-out: LC50): 6030 nM
- GI50 (HCT-15): 840 nM
- TGI (HCT-15): 2040 nM
- CC50 (HCT-15; read-out: LC50): 4930 nM
- GI50 (NCI-H226): 802 nM
- TGI (NCI-H226): 2290 nM
- CC50 (NCI-H226; read-out: LC50): 8330 nM
- GI50 (BT-549): 923 nM
- TGI (BT-549): 2700 nM
- CC50 (BT-549; read-out: LC50): 10500 nM
- GI50 (NCI-H460): 1110 nM
- TGI (NCI-H460): 2410 nM
- CC50 (NCI-H460; read-out: LC50): 23200 nM
- GI50 (HCT-116): 871 nM
- TGI (HCT-116): 1760 nM
- CC50 (HCT-116; read-out: LC50): 3550 nM
- GI50 (A498): 804 nM
- TGI (A498): 1830 nM
- CC50 (A498; read-out: LC50): 4160 nM
- GI50 (RXF 393): 829 nM
- TGI (RXF 393): 1750 nM
- CC50 (RXF 393; read-out: LC50): 3690 nM
- GI50 (HT29): 900 nM
- TGI (HT29): 2010 nM
- CC50 (HT29; read-out: LC50): 4510 nM
- GI50 (COLO 205): 649 nM
- TGI (COLO 205): 15100 nM
- CC50 (COLO 205; read-out: LC50): 3510 nM
- GI50 (U251): 819 nM
- TGI (U251): 1970 nM
- CC50 (U251; read-out: LC50): 4760 nM
- GI50 (MOLT-4): 425 nM
- TGI (MOLT-4): 1750 nM
- CC50 (MOLT-4; read-out: LC50): 20600 nM
- GI50 (UACC62): 649 nM
- TGI (UACC62): 1720 nM
- CC50 (UACC62; read-out: LC50): 4560 nM
- GI50 (SNB-19): 1430 nM
- TGI (SNB-19): 6240 nM
- CC50 (SNB-19; read-out: LC50): 18700 nM
- GI50 (OVCAR-8): 1600 nM
- TGI (OVCAR-8): 6380 nM
- CC50 (OVCAR-8; read-out: LC50): 29800 nM
- GI50 (UACC-257): 1070 nM
- TGI (UACC-257): 5430 nM
- CC50 (UACC-257; read-out: LC50): 17300 nM
- CC50 (HL-60(TB)): 13300 nM
- GI50 (HL-60(TB)): 321 nM
- TGI (HL-60(TB)): 1620 nM
- GI50 (OVCAR-3): 735 nM
- TGI (OVCAR-3): 1520 nM
- CC50 (OVCAR-3; read-out: LC50): 3130 nM
- GI50 (KM12): 979 nM
- TGI (KM12): 1910 nM
- CC50 (KM12; read-out: LC50): 3730 nM
- GI50 (NCI/ADR-RES): 3940 nM
- TGI (NCI/ADR-RES): 14000 nM
- CC50 (NCI/ADR-RES; read-out: LC50): 44700 nM

SMILES: Cc1cc(C)cc(-c2ccc3c(c2)[N+]([O-])=C2C3=C[C@@]34NC(=O)C5(CCCN5C3=O)CC4C2(C)C)c1 (stereo partly drawn) [Biphenyl Analogue]
- TGI (MDA-MB-231/ATCC): 1050 nM
- TGI (SK-OV-3): 1190 nM
- TGI (MDA-MB-468): 590 nM
- TGI (SF-539): 445 nM
- TGI (A549/ATCC): 834 nM
- TGI (M14): 556 nM
- TGI (MCF7): 984 nM
- TGI (EKVX): 1110 nM
- TGI (NCI-H522): 297 nM
- TGI (786-0): 398 nM
- TGI (HCT-15): 322 nM
- TGI (NCI-H226): 707 nM
- TGI (BT-549): 379 nM
- TGI (NCI-H460): 1180 nM
- TGI (HCT-116): 377 nM
- TGI (A498): 1320 nM
- TGI (HT29): >100000 nM
- TGI (COLO 205): 259 nM
- TGI (U251): 273 nM
- TGI (MOLT-4): 604 nM
- TGI (UACC62): 471 nM
- TGI (SNB-19): 950 nM
- TGI (OVCAR-8): 1030 nM
- TGI (UACC-257): 1360 nM
- TGI (HL-60(TB); HL-60(TB) (Leukemia), 48 hours, SRB): 655 nM
- TGI (OVCAR-3): 395 nM
- TGI (KM12): 740 nM
- TGI (NCI/ADR-RES): 2270 nM
